Measurements: PMC5774622 (Biochimie, 2017)
Ends that are not written are not given here.

Legend:
[1] = tested on: TFEB nuclear translocation; details: cited from earlier work
[2] = target: purified recombinant CN (Rattus norvegicus, UniProt P63100+P63329); test: Fluorescence polarization
[3] = tested on: interaction between GST-CNA and GFP-TFEB; test: GST pull-down of GFP-TFEB by GST-CNA; assay type: binding; details: quercetin 50 μM and 100 μM; GFP-TFEB transfected in HeLa cells
[4] = target: PVIVIT peptide; details: cited from earlier work
[5] = target: NFAT PRIEIT peptide (Homo sapiens); details: cited from earlier work
[6] = tested on: CN; details: kinetics comparable to intact RII; cited from earlier work
[7] = target: CN (Rattus norvegicus, UniProt P63100+P63329); test: CN phosphatase colorimetric assay with RII phosphopeptide as substrate; assay type: biochemical
[8] = tested on: CNA in mouse brain lysates; test: GST pull-down of CNA from mouse brain lysates; assay type: binding; details: addition of synthetic peptide to pull-down

purified recombinant CN, sequence (P63100 whole entry, other chains not shown): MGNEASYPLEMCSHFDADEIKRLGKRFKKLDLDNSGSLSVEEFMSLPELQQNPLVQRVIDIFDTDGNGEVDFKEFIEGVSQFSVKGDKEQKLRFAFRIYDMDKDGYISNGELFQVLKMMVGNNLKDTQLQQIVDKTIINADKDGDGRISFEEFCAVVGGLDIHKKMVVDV

C=CC[C@@H]1/C=C(\C)C[C@H](C)C[C@H](OC)[C@H]2O[C@@](O)(C(=O)C(=O)N3CCCC[C@H]3C(=O)O[C@H](/C(C)=C/[C@@H]3CC[C@@H](O)[C@H](OC)C3)[C@H](C)[C@@H](O)CC1=O)[C@H](C)C[C@@H]2OC [FK506]
TFEB nuclear translocation during starvation [1]: reduce TFEB nuclear translocation

CC(C)C[C@H](NC(=O)[C@H](Cc1ccc(O)cc1)NC(=O)[C@H](CCC(N)=O)NC(=O)[C@@H](N)CC(=O)O)C(=O)N[C@@H](C)C(=O)N[C@H](C(=O)N1CCC[C@H]1C(=O)N[C@@H](CCC(N)=O)C(=O)N[C@@H](Cc1c[nH]cn1)C(=O)N1CCC[C@H]1C(=O)N[C@@H](Cc1ccc(O)cc1)C(=O)N[C@@H](CCC(N)=O)C(=O)N[C@@H](Cc1c[nH]c2ccccc12)C(=O)N[C@@H](C)C(=O)N[C@@H](CCCCN)C(=O)O)C(C)C [NFATc1-YLAVP]
IC50 [2]: ~5 µM

O=c1c(O)c(-c2ccc(O)c(O)c2)oc2cc(O)cc(O)c12 [quercetin]
effect on interaction between GST-CNA and GFP-TFEB [3]: blocks the interaction

Calcineurin (from UniProt Q08209)
Kd [4]: 500 nM | Kd [5]: 25 µM

DLDVPIPGRFDRRVpSVAAE [RII phosphopeptide]
Vmax of dephosphorylation by CN [6]: 1.7 µmol/min/mg

ESILLVPPTWPKPLV [NFATc2-ILLVP]
IC50 [7]: 130 µM

GSSHLAPPNPDKQFL [RCAN1-HLAPP]
IC50 [7]: 131 µM

QSYLENPTSYHLQQS [TFEB-YLENP]
effect on interaction between GST-TFEB-YLENP and CNA [8]: greatly inhibited
